The target in one assay is T1, LXRα (Homo sapiens, UniProt Q13133).
T1 construct: CMX-GAL4N-hLXRα-LBD; expressed in transfected cells; host or cells: HEK293
T1 sequence (Q13133 209-447 limits assumed): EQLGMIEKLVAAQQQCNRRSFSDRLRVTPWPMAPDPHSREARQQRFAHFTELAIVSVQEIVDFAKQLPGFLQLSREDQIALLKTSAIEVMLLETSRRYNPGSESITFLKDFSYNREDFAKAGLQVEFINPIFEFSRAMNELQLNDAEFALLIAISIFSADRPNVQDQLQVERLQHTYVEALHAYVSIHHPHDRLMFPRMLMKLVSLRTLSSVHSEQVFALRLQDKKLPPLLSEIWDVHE
Kind of assay: LXRα reporter gene assay in HEK293. Conditions: read-out: LXRα antagonistic activity (IC50). Format: cell-based. Background: In a reporter assay the amount or activity of a reporter protein is the signal.

A further assay concerns the target T2, LXRβ (Homo sapiens, UniProt P55055).
T2 construct: CMX-GAL4N-hLXRβ-LBD; expressed in transfected cells; host or cells: HEK293
T2 sequence (P55055 222-460 limits assumed): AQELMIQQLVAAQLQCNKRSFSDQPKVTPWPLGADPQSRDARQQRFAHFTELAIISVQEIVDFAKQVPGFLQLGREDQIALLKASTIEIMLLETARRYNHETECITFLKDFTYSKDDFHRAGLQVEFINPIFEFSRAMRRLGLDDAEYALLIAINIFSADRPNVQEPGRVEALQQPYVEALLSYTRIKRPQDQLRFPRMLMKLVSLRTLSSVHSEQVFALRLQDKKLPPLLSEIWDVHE
Kind of assay: LXRβ reporter gene assay in HEK293. Conditions: read-out: LXRβ antagonistic activity (IC50). Format: cell-based.

A further assay deals with T3, RORα (Homo sapiens, UniProt P35398).
T3 construct: expressed in transfected cells; host or cells: HEK293
T3 sequence (P35398 1-523): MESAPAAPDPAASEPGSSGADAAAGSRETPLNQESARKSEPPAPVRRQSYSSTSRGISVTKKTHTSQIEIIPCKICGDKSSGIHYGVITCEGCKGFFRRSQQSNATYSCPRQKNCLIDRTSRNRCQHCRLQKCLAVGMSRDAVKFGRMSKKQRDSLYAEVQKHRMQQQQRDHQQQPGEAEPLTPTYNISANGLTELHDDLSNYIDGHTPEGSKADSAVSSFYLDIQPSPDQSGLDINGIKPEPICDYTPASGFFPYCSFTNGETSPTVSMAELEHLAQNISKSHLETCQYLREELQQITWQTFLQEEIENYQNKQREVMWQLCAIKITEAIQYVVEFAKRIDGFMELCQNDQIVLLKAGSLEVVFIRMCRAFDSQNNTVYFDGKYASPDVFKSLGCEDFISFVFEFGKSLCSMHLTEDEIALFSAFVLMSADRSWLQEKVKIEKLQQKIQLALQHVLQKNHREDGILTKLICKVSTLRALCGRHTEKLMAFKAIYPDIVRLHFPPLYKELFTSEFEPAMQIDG
The following applies: reporter gene assay, HEK293; read-out: RORα inverse agonistic activity (IC50); cited from earlier work.

The next assay has as its target T4, RORβ (Homo sapiens, UniProt Q92753).
T4 construct: expressed in transfected cells; host or cells: HEK293
T4 sequence (Q92753 1-459 isoform Q92753-1): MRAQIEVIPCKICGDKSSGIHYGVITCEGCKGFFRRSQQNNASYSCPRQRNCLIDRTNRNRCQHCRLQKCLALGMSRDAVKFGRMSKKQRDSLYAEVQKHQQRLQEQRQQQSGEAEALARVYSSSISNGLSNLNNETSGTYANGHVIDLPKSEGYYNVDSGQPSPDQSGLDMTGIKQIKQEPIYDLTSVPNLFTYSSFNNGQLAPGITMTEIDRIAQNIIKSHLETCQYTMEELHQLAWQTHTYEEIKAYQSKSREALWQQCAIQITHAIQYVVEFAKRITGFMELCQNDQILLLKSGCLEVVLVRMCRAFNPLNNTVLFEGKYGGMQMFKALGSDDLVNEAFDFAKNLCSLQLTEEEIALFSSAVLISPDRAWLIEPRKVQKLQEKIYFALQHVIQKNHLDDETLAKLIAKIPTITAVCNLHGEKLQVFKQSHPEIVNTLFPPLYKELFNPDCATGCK
The following applies: reporter gene assay, HEK293; read-out: RORβ inverse agonistic activity (IC50); cited from earlier work.

A further assay deals with T5, AR (Homo sapiens, UniProt P10275).
T5 sequence (P10275 1-920): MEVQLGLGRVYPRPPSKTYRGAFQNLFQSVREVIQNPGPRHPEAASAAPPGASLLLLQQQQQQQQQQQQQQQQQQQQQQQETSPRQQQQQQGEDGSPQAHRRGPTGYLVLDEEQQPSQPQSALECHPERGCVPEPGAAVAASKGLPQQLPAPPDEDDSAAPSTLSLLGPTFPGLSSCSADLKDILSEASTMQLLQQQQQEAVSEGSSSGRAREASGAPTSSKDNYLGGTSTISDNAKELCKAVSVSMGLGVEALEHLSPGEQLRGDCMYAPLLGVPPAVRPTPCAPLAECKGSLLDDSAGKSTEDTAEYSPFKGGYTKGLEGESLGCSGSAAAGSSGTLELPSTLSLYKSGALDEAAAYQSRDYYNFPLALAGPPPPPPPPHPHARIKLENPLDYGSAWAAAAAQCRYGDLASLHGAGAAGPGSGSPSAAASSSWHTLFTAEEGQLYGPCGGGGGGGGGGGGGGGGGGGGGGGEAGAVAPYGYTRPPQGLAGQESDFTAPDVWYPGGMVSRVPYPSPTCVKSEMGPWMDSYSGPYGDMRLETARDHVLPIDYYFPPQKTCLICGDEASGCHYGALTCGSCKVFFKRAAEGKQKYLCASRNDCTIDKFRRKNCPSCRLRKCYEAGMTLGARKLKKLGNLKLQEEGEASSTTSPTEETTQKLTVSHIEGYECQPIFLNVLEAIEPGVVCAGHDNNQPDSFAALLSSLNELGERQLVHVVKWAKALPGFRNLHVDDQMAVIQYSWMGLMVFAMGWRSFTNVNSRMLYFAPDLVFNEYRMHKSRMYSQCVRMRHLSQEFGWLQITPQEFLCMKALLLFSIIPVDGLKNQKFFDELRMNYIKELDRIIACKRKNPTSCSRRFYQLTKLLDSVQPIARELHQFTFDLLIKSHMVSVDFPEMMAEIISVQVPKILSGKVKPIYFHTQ
The assay can be described thus: AR reporter gene assay in HEK293. Format: cell-based. Conditions: for IC50: reporter gene assay, HEK293, agonist dihydrotestosterone 0.3 nM, read-out: AR antagonistic activity (IC50), AR reporter gene.

SMILES strings stand for the structures. Bounds are passed on as bounds.

Turning to `CCCCn1c(=O)c2ccccc2c2ccccc21` [Compound 7], the IC50 (commonly the concentration needed to halve the response being measured) is 19 µM at LXRα; 15 µM at LXRβ; 10 µM on RORα; 13 µM on RORβ; 17 µM on AR.
In the case of `CCCCn1c(=O)c2cccc(OC)c2c2cc(C(O)(C(F)(F)F)C(F)(F)F)ccc21` [Compound 24], the IC50 on LXRα was 4.6 µM; at LXRβ it was 4.3 µM; on RORα it was 7.7 µM; on RORβ, greater than 20 µM; on AR, greater than 20 µM.
As for `CCCCn1c(=O)c2cc(OC)ccc2c2cc(C(O)(C(F)(F)F)C(F)(F)F)c(OC)cc21` [Compound 27], the IC50 on LXRα is 17 µM; at LXRβ, 18 µM; at RORα, 9.5 µM; on RORβ, 13 µM; at AR it was 0.58 µM.
Consider `CCn1c(=O)c2ccccc2c2cc(C(O)(C(F)(F)F)C(F)(F)F)ccc21` [Compound 14], for which the IC50 was 14 µM at LXRα; 6.6 µM at LXRβ; greater than 20 µM on RORα; greater than 20 µM at RORβ; 1.7 µM on AR.
As for `CCCCn1c(=O)c2cc(OC)ccc2c2cc(C(O)(C(F)(F)F)C(F)(F)F)ccc21` [Compound 22], the IC50 on LXRα was 12 µM; on LXRβ, 11 µM; at RORα, 12 µM; on RORβ, 15 µM; at AR, 1 µM.
With `O=c1[nH]c2ccc(C(O)(C(F)(F)F)C(F)(F)F)cc2c2ccccc12` [Compound 1], the IC50 was greater than 20 µM at RORα, greater than 20 µM on RORβ and 0.1 µM at AR.
Consider `O=c1[nH]c2c(Cl)cc(C(O)(C(F)(F)F)C(F)(F)F)cc2c2ccccc12` [Compound 43, 4-Chloro-2-(1,1,1,3,3,3-hexafluoro-2-hydroxypropan-2-yl)phenanthridin-6(5H)-one], for which the concentration for half-maximal inhibition (IC50) on LXRα is 5.3 µM. Besides, at LXRβ, the IC50 was greater than 20 µM. Further, on AR, the “selectivity for AR over LXRα” value turned out to be 90 fold; the “selectivity for AR over PR” value was found to be 6 fold; the “selectivity for AR over RORs and LXRβ” value is reported as “more than 340 fold”; the IC50 is 0.059 µM. On AR (under the authors' assay conditions), the “AR potency relative to OHF (more potent)” value is 2.9 fold.
As to `CCCCn1c(=O)c2ccccc2c2cc(C(C)(C)C)ccc21` [Compound 10], the IC50 at LXRα is greater than 20 µM; at LXRβ, greater than 20 µM; on RORα it was 12 µM; on RORβ, 13 µM; at AR it was 17 µM.
Consider `O=c1[nH]c2ccc(C(O)(C(F)(F)F)C(F)(F)F)cc2c2cc(F)ccc12` [Compound 35], for which the IC50 on LXRα was 6.4 µM; on LXRβ, 5.4 µM; on RORα, 9.8 µM; at RORβ, 8.3 µM; on AR it was 0.92 µM.
Consider `CCCCn1c(=O)c2ccccc2c2c(OC)c(C(O)(C(F)(F)F)C(F)(F)F)ccc21` [Compound 18], for which the half-inhibitory concentration (IC50) at LXRα, on LXRβ, on RORα, on RORβ and on AR was greater than 20 µM each time.
Consider `CCCCn1c(=O)c2ccccc2c2cc(CO)ccc21` [Compound 11], for which the IC50 on LXRα is greater than 20 µM; at LXRβ, greater than 20 µM; at RORα it was greater than 20 µM; at RORβ, greater than 20 µM; at AR it was 9.6 µM.
As for `O=c1[nH]c2ccc(C(O)(C(F)(F)F)C(F)(F)F)cc2c2ccc(F)cc12` [Compound 34], the IC50 is 7.9 µM at LXRα; 6 µM at LXRβ; 17 µM on RORα; 11 µM at RORβ; 0.68 µM at AR.
Regarding `CCCCCCCCCn1c(=O)c2ccccc2c2cc(C(O)(C(F)(F)F)C(F)(F)F)ccc21` [Compound 17], the IC50 was greater than 20 µM on LXRα; greater than 20 µM on LXRβ; greater than 20 µM on RORα; greater than 20 µM on RORβ; 15 µM on AR.
Consider `CCCCn1c(=O)c2ccc(OC)cc2c2cc(C(O)(C(F)(F)F)C(F)(F)F)ccc21` [Compound 23], for which the IC50 is 7 µM on LXRα; 2.4 µM at LXRβ; 6.6 µM at RORα; 7.2 µM at RORβ; greater than 20 µM on AR.
For `Cn1c(=O)c2ccccc2c2cc(C(O)(C(F)(F)F)C(F)(F)F)ccc21` [Compound 13], the IC50 at RORα is greater than 20 µM; on RORβ it was greater than 20 µM; at AR, 0.5 µM.
As for `COc1cc(C(O)(C(F)(F)F)C(F)(F)F)cc2c1[nH]c(=O)c1ccccc12` [Compound 39], the IC50 on LXRα, on LXRβ, on RORα, on RORβ and at AR was greater than 20 µM in each case.
With `CCCCn1c(=O)c2ccccc2c2cc(C(O)(C(F)(F)F)C(F)(F)F)c(OC)cc21` [Compound 19], the IC50 on LXRα is 8.4 µM; at LXRβ, 9.2 µM; on RORα, 8.2 µM; at RORβ it was 8.2 µM; on AR, 1.1 µM.
For `CCCCn1c(=O)c2ccccc2c2cc(C(O)(C(F)(F)F)C(F)(F)F)cc(OC)c21` [Compound 20], the IC50 at LXRα was 6.9 µM; on LXRβ, 5.5 µM; on RORα, 7.5 µM; on RORβ, 6.9 µM; on AR it was 2.4 µM.
On to `CCCCn1c(=O)c2c(OC)cccc2c2cc(C(O)(C(F)(F)F)C(F)(F)F)ccc21` [Compound 21], for which the IC50 at LXRα was 11 µM; on LXRβ it was 12 µM; at RORα, 12 µM; on RORβ it was 15 µM; at AR, 9.4 µM.
As for `CCCc1cc(C(O)(C(F)(F)F)C(F)(F)F)cc2c1[nH]c(=O)c1ccccc12` [Compound 42], the IC50 on LXRα is greater than 20 µM; at LXRβ, 20 µM; on RORα it was greater than 20 µM; on RORβ, 11 µM; on AR it was 5.4 µM.
